# Measured values taken from US20250092084A1, “C7, C12, AND C16 SUBSTITUTED NEUROACTIVE STEROIDS AND THEIR METHODS OF USE” (Sage Therapeutics, Inc., priority 2016, published 2025).
# Molecular target: rat brain cortical membranes (GABA receptor complex, [35S]-TBPS binding)
# Experiment: Steroid inhibition of [35S]-TBPS binding
# Settings: 3 nM [35S]-TBPS, in the presence of 5 mM GABA
# Protocol: [^35S]-t-Butylbicyclophosphorothionate (TBPS) binding assays using rat brain cortical membranes in the presence of 5 mM GABA has been described (Gee et al, J Pharmacol. Exp. Ther. 1987, 241, 346-353; Hawkinson et al, Mol. Pharmacol. 1994, 46, 977-985; Lewin, A. H et al., Mol. Pharmacol. 1989, 35, 189-194).
# Briefly, cortices are rapidly removed following decapitation of carbon dioxide-anesthetized Sprague-Dawley rats (200-250 g). The cortices are homogenized in 10 volumes of ice-cold 0.32 M sucrose using a glass/teflon homogenizer and centrifuged at 1500×g for 10 min at 4° C. The resultant supernatants are centrifuged at 10,000×g for 20 min at 4° C. to obtain the P2 pellets. The P2 pellets are resuspended in 200 mM NaCl/50 mM Na—K phosphate pH 7.4 buffer and centrifuged at 10,000×g for 10 min at 4° C. This washing procedure is repeated twice and the pellets are resuspended in 10 volumes of buffer. Aliquots ([…]) of the membrane suspensions are incubated with 3 nM [^35S]-TBPS and […] aliquots of test drug dissolved in dimethyl sulfoxide (DMSO) (final 0.5%) in the presence of 5 mM GABA. The incubation is brought to a final volume of 1.0 mL with buffer. Nonspecific binding is determined in the presence of […] and ranged from 15 to 25%. Following a 90 min incubation at room temp, the assays are terminated by filtration through glass fiber filters (Schleicher and Schuell No. 32) using a cell harvester (Brandel) and rinsed three times with ice-cold buffer. Filter bound radioactivity is measured by liquid scintillation spectrometry. Non-linear curve fitting of the overall data for each drug averaged for each concentration is done using Prism (GraphPad). […] The concentration of test compound producing 50% inhibition (IC50) of specific binding and the maximal extent of inhibition (Imax) are determined for the individual experiments with the same model used for the overall data and then the means±SEMs of the individual experiments are calculated.
# Various compounds are or can be screened to determine their potential as modulators of [^35S]-TBPS binding in vitro. These assays are or can be performed in accordance with the above discussed procedures.
row,SMILES,IC50 [nM]
1,CC(=O)[C@H]1[C@H](C)C[C@H]2[C@@H]3CC[C@H]4C[C@](C)(O)CC[C@@H]4[C@H]3CC[C@@]21C (stereo in doubt) [Compound 91],10 to 50
2,C[C@@H]1C[C@H]2C[C@](C)(O)CC[C@]2(C)[C@H]2CC[C@]3(C)[C@@H](C#N)CC[C@H]3[C@H]12 [Compound 1],≥ 500
3,C[C@H]1C[C@H]2C[C@](C)(O)CC[C@]2(C)[C@H]2CC[C@]3(C)[C@@H](C#N)CC[C@H]3[C@H]12 [Compound 2],≥ 500
4,CO[C@H]1CC[C@H]2[C@@H]3[C@H](C)C[C@H]4C[C@](C)(O)CC[C@]4(C)[C@H]3CC[C@]12C [Compound 3],≥ 500
5,CO[C@H]1CC[C@H]2[C@@H]3[C@@H](C)C[C@H]4C[C@](C)(O)CC[C@]4(C)[C@H]3CC[C@]12C [Compound 4],≥ 500
6,CC(=O)[C@H]1CC[C@H]2[C@@H]3[C@H](C)C[C@H]4C[C@](C)(O)CC[C@]4(C)[C@H]3CC[C@]12C [Compound 5],≥ 500
7,CC(=O)[C@H]1CC[C@H]2[C@@H]3[C@@H](C)C[C@H]4C[C@](C)(O)CC[C@]4(C)[C@H]3CC[C@]12C [Compound 6],≥ 500
8,C[C@H]1C[C@H]2C[C@](C)(O)CC[C@]2(C)[C@H]2CC[C@]3(C)[C@@H](C(=O)Cn4cc5ccncc5n4)CC[C@H]3[C@H]12 [Compound 7],≥ 500
9,C[C@@H]1C[C@H]2C[C@](C)(O)CC[C@]2(C)[C@H]2CC[C@]3(C)[C@@H](C(=O)Cn4cc5ccncc5n4)CC[C@H]3[C@H]12 [Compound 8],≥ 500
10,C[C@H]1C[C@H]2C[C@](C)(O)CC[C@]2(C)[C@H]2CC[C@]3(C)[C@@H](C(=O)Cn4ncc5ccncc54)CC[C@H]3[C@H]12 [Compound 9],100 to 500
11,C[C@@H]1C[C@H]2C[C@](C)(O)CC[C@]2(C)[C@H]2CC[C@]3(C)[C@@H](C(=O)Cn4ncc5ccncc54)CC[C@H]3[C@H]12 [Compound 10],≥ 500
12,COC[C@H]1C[C@H]2C[C@](C)(O)CC[C@]2(C)[C@H]2CC[C@]3(C)[C@@H](C(C)=O)CC[C@H]3[C@H]12 [Compound 11],≥ 500
13,COC[C@@H]1C[C@H]2C[C@](C)(O)CC[C@]2(C)[C@H]2CC[C@]3(C)[C@@H](C(C)=O)CC[C@H]3[C@H]12 [Compound 12],≥ 500
14,COC[C@H]1C[C@H]2C[C@](C)(O)CC[C@]2(C)[C@H]2CC[C@]3(C)[C@@H](C(=O)Cn4cc(C#N)cn4)CC[C@H]3[C@H]12 [Compound 13],≥ 500
15,COC[C@@H]1C[C@H]2C[C@](C)(O)CC[C@]2(C)[C@H]2CC[C@]3(C)[C@@H](C(=O)Cn4cc(C#N)cn4)CC[C@H]3[C@H]12 [Compound 14],≥ 500
16,COC[C@H]1C[C@H]2C[C@](C)(O)CC[C@]2(C)[C@H]2CC[C@]3(C)[C@@H](C(=O)Cn4nc5ccc(OC)cc5n4)CC[C@H]3[C@H]12 [Compound 15],≥ 500
17,COC[C@H]1C[C@H]2C[C@](C)(O)CC[C@]2(C)[C@H]2CC[C@]3(C)[C@@H](C(=O)Cn4nnc5ccc(OC)cc54)CC[C@H]3[C@H]12 [Compound 16],≥ 500
18,COC[C@H]1C[C@H]2C[C@](C)(O)CC[C@]2(C)[C@H]2CC[C@]3(C)[C@@H](C(=O)Cn4nnc5cc(OC)ccc54)CC[C@H]3[C@H]12 [Compound 17],≥ 500
19,COC[C@@H]1C[C@H]2C[C@](C)(O)CC[C@]2(C)[C@H]2CC[C@]3(C)[C@@H](C(=O)Cn4nc5ccc(OC)cc5n4)CC[C@H]3[C@H]12 [Compound 18],≥ 500
20,COC[C@@H]1C[C@H]2C[C@](C)(O)CC[C@]2(C)[C@H]2CC[C@]3(C)[C@@H](C(=O)Cn4nnc5ccc(OC)cc54)CC[C@H]3[C@H]12 [Compound 19],≥ 500
21,COC[C@@H]1C[C@H]2C[C@](C)(O)CC[C@]2(C)[C@H]2CC[C@]3(C)[C@@H](C(=O)Cn4nnc5cc(OC)ccc54)CC[C@H]3[C@H]12 [Compound 20],≥ 500

row,SMILES,IC50 [nM]
1,COC[C@H]1C[C@H]2C[C@](C)(O)CC[C@]2(C)[C@H]2CC[C@]3(C)[C@@H](C(=O)Cn4cc5ccncc5n4)CC[C@H]3[C@H]12 [Compound 21],≥ 500
2,COC[C@@H]1C[C@H]2C[C@](C)(O)CC[C@]2(C)[C@H]2CC[C@]3(C)[C@@H](C(=O)Cn4ncc5ccncc54)CC[C@H]3[C@H]12 [Compound 23],≥ 500
3,COC[C@@H]1C[C@H]2C[C@](C)(O)CC[C@]2(C)[C@H]2CC[C@]3(C)[C@@H](C(=O)Cn4cc5ccncc5n4)CC[C@H]3[C@H]12 [Compound 24],≥ 500
4,CC(=O)[C@H]1CC[C@H]2[C@@H]3[C@H](O)C[C@H]4C[C@](C)(O)CC[C@]4(C)[C@H]3CC[C@]12C [Compound 25],≥ 500
5,C[C@@]1(O)CC[C@@]2(C)[C@@H](C[C@@H](O)[C@@H]3[C@@H]2CC[C@]2(C)[C@@H](C(=O)Cn4cc(C#N)cn4)CC[C@@H]32)C1 [Compound 26],≥ 500
6,C[C@@]1(O)CC[C@@]2(C)[C@@H](C[C@@H](O)[C@@H]3[C@@H]2CC[C@]2(C)[C@@H](C(=O)Cn4cc5ccncc5n4)CC[C@@H]32)C1 [Compound 27],≥ 500
7,C[C@@]1(O)CC[C@@]2(C)[C@@H](C[C@@H](O)[C@@H]3[C@@H]2CC[C@]2(C)[C@@H](C(=O)Cn4ncc5ccncc54)CC[C@@H]32)C1 [Compound 28],≥ 500
8,CO[C@@H]1C[C@H]2C[C@](C)(O)CC[C@]2(C)[C@H]2CC[C@]3(C)[C@@H](C(C)=O)CC[C@H]3[C@H]12 [Compound 29],≥ 500
9,CO[C@H]1C[C@H]2C[C@](C)(O)CC[C@]2(C)[C@H]2CC[C@]3(C)[C@@H](C(C)=O)CC[C@H]3[C@H]12 [Compound 30],≥ 500
10,CO[C@H]1C[C@H]2C[C@](C)(O)CC[C@]2(C)[C@H]2CC[C@]3(C)[C@@H](C(=O)Cn4cc(C#N)cn4)CC[C@H]3[C@H]12 [Compound 31],≥ 500
11,Cc1nnn(CC(=O)[C@H]2CC[C@H]3[C@@H]4[C@H](C)C[C@H]5C[C@](C)(O)CC[C@]5(C)[C@H]4CC[C@]23C)n1 [Compound 34],≥ 500
12,Cc1nnnn1CC(=O)[C@H]1CC[C@H]2[C@@H]3[C@H](C)C[C@H]4C[C@](C)(O)CC[C@]4(C)[C@H]3CC[C@]12C [Compound 36],≥ 500
13,C[C@@H]1C[C@H]2C[C@](C)(O)CC[C@]2(C)[C@H]2CC[C@]3(C)[C@@H](C(=O)Cn4cc(C#N)cn4)CC[C@H]3[C@H]12 [Compound 38],100 to 500
14,C[C@H]1C[C@H]2C[C@](C)(O)CC[C@]2(C)[C@H]2CC[C@]3(C)[C@@H](C(=O)Cn4cc(C#N)cn4)CC[C@H]3[C@H]12 [Compound 39],100 to 500
15,C[C@@]1(O)CC[C@@]2(C)[C@@H](CC[C@@H]3[C@@H]2C[C@@H](O)[C@]2(C)[C@@H](C#N)CC[C@@H]32)C1 [Compound 40],≥ 500
16,CO[C@@H]1C[C@H]2[C@@H](CC[C@H]3C[C@](C)(O)CC[C@@]32C)[C@@H]2CC[C@H](C#N)[C@@]12C [Compound 41],100 to 500
17,CO[C@H]1CC[C@H]2[C@@H]3CC[C@H]4C[C@](C)(O)CC[C@]4(C)[C@H]3C[C@@H](OC)[C@]12C [Compound 42],100 to 500
18,CO[C@@H]1C[C@H]2[C@@H](CC[C@H]3C[C@](C)(O)CC[C@@]32C)[C@@H]2CC[C@H](C(C)=O)[C@@]12C [Compound 43],100 to 500
19,CO[C@@H]1C[C@H]2[C@@H](CC[C@H]3C[C@](C)(O)CC[C@@]32C)[C@@H]2CC[C@H](C(=O)Cn3cc(C#N)cn3)[C@@]12C [Compound 44],10 to 50
20,CC(=O)[C@H]1CC[C@H]2[C@@H]3CC[C@H]4C[C@](C)(O)CC[C@]4(C)[C@H]3CC(=O)[C@]12C [Compound 46],≥ 500
